77 sequences from the supplement of paper PMC11208160 can be followed below.
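Note: IS621 recombinase and bridge RNA in Escherichia coli cells.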

The data set can be described thus: recombinant barcode read abundance after kanamycin selection (control-corrected) (log10(CPM+1)); higher = more efficient recombination; sequences stand for … in AGTGCAGAGAAAATCGGCCAGTTTTCTCTGCCTGCAGTCCGCATGCCGT…AGATTTATGCAGCGGACTGCCTTTCTCCCAAAGTGATAAACCGGACAGTATCATGGACCGGTTTTCCCGGTAATCCGTATTTGCAAGGTTGGTTTCACT; site = the 11-nt target. Put shortly:
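Recombination efficiency comes from barcode counts at recombinant junctions, converted to counts per million, averaged and corrected against the control. Values appear as log10(CPM+1). They were obtained from a pooled E. coli screen in which each oligo paired a target with an IS621 bridge RNA target-binding loop, and cells were plated in duplicate on chloramphenicol/ampicillin LB agar or on chloramphenicol/ampicillin/kanamycin with 0.1 mM IPTG.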
With “TGGCTATCTTGGGTTCTAACCTGTTGCCT (site TGGCTATCTAG)”, the “recombinant barcode read abundance (log10)” value turned out to be 0.187. To “TGGCTCCCTTGGGTTCTAACCTGTTGCCG (site TGGCTCCCTCC)” belongs 0.077. To “TGGCTCCCTTGGGTTCTAACCTGTTGCCG (site TGGCTCCCTCG)” belongs 1.35; to “TGGCTCCCTTGGGTTCTAACCTGTTGCGG (site TGGCTCCCTCC)”, 0.188. For “TGGCTCCCTTGGGTTCTAACCTGTTGCGG (site TGGCTCCCTCG)”, the “recombinant barcode read abundance (log10)” value stood at 0.12.

Turning to “TGGGACTCTTGGGTTCTAACCTGTTGCCA (site TCGGACACTTG)”, the “recombinant barcode read abundance (log10)” value was found to be 0.328.

For the sequence “TGGGACTCTTGGGTTCTAACCTGTTGCCA (site TGGGACTCTTG)”, the “recombinant barcode read abundance (log10)” value was 2.29. To “TGGGATCCTTGGGTTCTAACCTGTTGCAT (site AGGGGTCCTAT)” belongs 0.0813. To “TGGGATCCTTGGGTTCTAACCTGTTGCAT (site TGGGATCCTAT)” belongs 1.73; to “TGGGGCCCTTGGGTTCTAACCTGTTGCCT (site TGGGGCCCTAG)”, 1.66. To “TGGGGCCCTTGGGTTCTAACCTGTTGCCT (site TGGTGCCCTAC)” belongs 0.156.

As to “TGGGGTCCTTGGGTTCTAACCTGTTGCCT (site TGGAGTCCTAG)”, the “recombinant barcode read abundance (log10)” value is 1.52. Regarding “TGGGGTCCTTGGGTTCTAACCTGTTGCCT (site TGGCGTCCTAG)”, the “recombinant barcode read abundance (log10)” value is 0.0786. In the case of “TGGGGTCCTTGGGTTCTAACCTGTTGCCT (site TGGGGTCCTAG)”, the “recombinant barcode read abundance (log10)” value is 2.33.

“TGGGGTCCTTGGGTTCTAACCTGTTGCCT (site TGGTGTCCTAG)”: the “recombinant barcode read abundance (log10)” value stood at 0.217. To “TGGGTCCCTTGGGTTCTAACCTGTTGCCT (site TGAGTCCCTAG)” belongs 2.14; to “TGGGTCCCTTGGGTTCTAACCTGTTGCCT (site TGCGTCCCTAG)”, 0.102; to “TGGGTCCCTTGGGTTCTAACCTGTTGCCT (site TGGGTCCCTAG)”, 3. In the case of “TGGGTCCCTTGGGTTCTAACCTGTTGCCT (site TGTGTCCCTAG)”, the “recombinant barcode read abundance (log10)” value was found to be 0.0764. The same measure for “TGGTACCCTTGGGTTCTAACCTGTTGCCT (site TGGTACCCTAG)”: 1.64; for “TGGTACCCTTGGGTTCTAACCTGTTGCCT (site TGTTACCCTAG)”: 0.126. The same measure for “TGGTATTCTTGGGTTCTAACCTGTTGCCT (site TGGTATACTAG)”: 0.0539. Take “TGGTATTCTTGGGTTCTAACCTGTTGCCT (site TGGTATCCTAG)”: the “recombinant barcode read abundance (log10)” value worked out at 0.113.

Consider “TGGTATTCTTGGGTTCTAACCTGTTGCCT (site TGGTATGCTAG)”, for which the “recombinant barcode read abundance (log10)” value was determined as 0.11.

With “TGGTATTCTTGGGTTCTAACCTGTTGCCT (site TGGTATTCTAG)”, the “recombinant barcode read abundance (log10)” value came out at 0.373.

In the case of “TGGTCCGCTTGGGTTCTAACCTGTTGCCT (site TGGTACGCTAG)”, the “recombinant barcode read abundance (log10)” value stood at 0.257.

For “TGGTCCGCTTGGGTTCTAACCTGTTGCCT (site TGGTCCGCTAG)”, the “recombinant barcode read abundance (log10)” value worked out at 1.58.

As for “TGGTCCGCTTGGGTTCTAACCTGTTGCCT (site TGGTGCGCTAG)”, the “recombinant barcode read abundance (log10)” value turned out to be 0.0483. To “TGGTCCGCTTGGGTTCTAACCTGTTGCCT (site TGGTTCGCTAG)” belongs 0.243; to “TGGTGCCCTTGGGTTCTAACCTGTTGCGT (site TGGGGCCCTAG)”, 0.122. The same measure for “TGGTGCCCTTGGGTTCTAACCTGTTGCGT (site TGGTGCCCTAC)”: 1.83. To “TGGTTACCTTGGGTTCTAACCTGTTGCCT (site TGGTTACCTAG)” belongs 1.17. Turning to “TGGTTACCTTGGGTTCTAACCTGTTGCCT (site TGTTTAACTAG)”, the “recombinant barcode read abundance (log10)” value amounted to 0.0377. The same measure for “TGTACGTCTTGGGTTCTAACCTGTTGCTT (site TGTACGACTAG)”: 0.0847; for “TGTACGTCTTGGGTTCTAACCTGTTGCTT (site TGTACGTCTAA)”: 0.326. To “TGTAGAGCTTGGGTTCTAACCTGTTGCAG (site TGTAGAGCTCT)” belongs 0.872; to “TGTAGAGCTTGGGTTCTAACCTGTTGCAG (site TGTTGAGCTCT)”, 0.0298. The same measure for “TGTAGCACTTGGGTTCTAACCTGTTGCAC (site TGTAGCACTGT)”: 0.0233. Consider “TGTAGCACTTGGGTTCTAACCTGTTGCAC (site TGTCGCACTCT)”, for which the “recombinant barcode read abundance (log10)” value was 0.159. To “TGTAGTCCTTGGGTTCTAACCTGTTGCAT (site TGTAGTCCTAA)” belongs 0.232; to “TGTAGTCCTTGGGTTCTAACCTGTTGCAT (site TGTAGTCCTAC)”, 0.0299; to “TGTAGTCCTTGGGTTCTAACCTGTTGCAT (site TGTAGTCCTAG)”, 0.156.

Turning to “TGTAGTCCTTGGGTTCTAACCTGTTGCAT (site TGTAGTCCTAT)”, the “recombinant barcode read abundance (log10)” value came out at 0.097. Take “TGTAGTCCTTGGGTTCTAACCTGTTGCCT (site TGTAGTCCTAA)”: the “recombinant barcode read abundance (log10)” value was 0.0423. Consider “TGTAGTCCTTGGGTTCTAACCTGTTGCCT (site TGTAGTCCTAC)”, for which the “recombinant barcode read abundance (log10)” value was 0.0647. Consider “TGTAGTCCTTGGGTTCTAACCTGTTGCCT (site TGTAGTCCTAG)”, for which the “recombinant barcode read abundance (log10)” value was 0.26.

With “TGTAGTCCTTGGGTTCTAACCTGTTGCCT (site TGTAGTCCTAT)”, the “recombinant barcode read abundance (log10)” value was found to be 0.348. “TGTATCGCTTGGGTTCTAACCTGTTGCCT (site TGTATCGCTAG)”: the “recombinant barcode read abundance (log10)” value is 0.405.

Take “TGTATCGCTTGGGTTCTAACCTGTTGCCT (site TGTCCCGCTAG)”: the “recombinant barcode read abundance (log10)” value was found to be 0.149. As to “TGTCAAACTTGGGTTCTAACCTGTTGCCT (site TGTCAAACTAG)”, the “recombinant barcode read abundance (log10)” value worked out at 0.298. With “TGTCAAACTTGGGTTCTAACCTGTTGCCT (site TGTCAACCTAG)”, the “recombinant barcode read abundance (log10)” value was 0.176.

As for “TGTCAAACTTGGGTTCTAACCTGTTGCCT (site TGTCAAGCTAG)”, the “recombinant barcode read abundance (log10)” value is 0.145.

Consider “TGTCAAACTTGGGTTCTAACCTGTTGCCT (site TGTCAATCTAG)”, for which the “recombinant barcode read abundance (log10)” value was 0.0654. The same measure for “TGTCAATCTTGGGTTCTAACCTGTTGCCT (site TGTCAAACTAG)”: 0.243; for “TGTCAATCTTGGGTTCTAACCTGTTGCCT (site TGTCAACCTAG)”: 0.061; for “TGTCAATCTTGGGTTCTAACCTGTTGCCT (site TGTCAAGCTAG)”: 0.0211. To “TGTCAATCTTGGGTTCTAACCTGTTGCCT (site TGTCAATCTAG)” belongs 0.0947; to “TGTCAATCTTGGGTTCTAACCTGTTGCGT (site TGTCAATCTAC)”, 0.543; to “TGTCAATCTTGGGTTCTAACCTGTTGCGT (site TGTCGATCTAG)”, 0.152. Turning to “TGTCAGGCTTGGGTTCTAACCTGTTGCCT (site TGCTAGGCTAG)”, the “recombinant barcode read abundance (log10)” value came to 0.187. To “TGTCAGGCTTGGGTTCTAACCTGTTGCCT (site TGTCAGGCTAG)” belongs 0.0749; to “TGTCGCACTTGGGTTCTAACCTGTTGCAG (site TGTAGCACTGT)”, 0.123; to “TGTCGCACTTGGGTTCTAACCTGTTGCAG (site TGTCGCACTCT)”, 0.313. For the sequence “TGTCTACCTTGGGTTCTAACCTGTTGCCT (site TGTCTACCTAG)”, the “recombinant barcode read abundance (log10)” value was 0.191. On to “TGTCTACCTTGGGTTCTAACCTGTTGCCT (site TGTCTATCTAG)”, for which the “recombinant barcode read abundance (log10)” value was 0.653. To “TGTCTAGCTTGGGTTCTAACCTGTTGCCT (site TGACTAGCTAG)” belongs 0.486. The same measure for “TGTCTAGCTTGGGTTCTAACCTGTTGCCT (site TGCCTAGCTAG)”: 0.0303; for “TGTCTAGCTTGGGTTCTAACCTGTTGCCT (site TGGCTAGCTAG)”: 0.0711. For the sequence “TGTCTAGCTTGGGTTCTAACCTGTTGCCT (site TGTCTAGCTAG)”, the “recombinant barcode read abundance (log10)” value turned out to be 0.038. As to “TGTCTCCCTTGGGTTCTAACCTGTTGCCG (site TGTCTCCCTCG)”, the “recombinant barcode read abundance (log10)” value was 0.261. The same measure for “TGTCTCCCTTGGGTTCTAACCTGTTGCCG (site TGTGTCCCTCG)”: 0.108. The same measure for “TGTCTGCCTTGGGTTCTAACCTGTTGCCT (site AGTCTGCCTAG)”: 0.104. To “TGTCTGCCTTGGGTTCTAACCTGTTGCCT (site CGTCTGCCTAG)” belongs 0.122. “TGTCTGCCTTGGGTTCTAACCTGTTGCCT (site GGTCTGCCTAG)”: the “recombinant barcode read abundance (log10)” value stood at 0.0534. To “TGTCTGCCTTGGGTTCTAACCTGTTGCCT (site TGTCTGCCTAG)” belongs 0.295; to “TGTGAGTCTTGGGTTCTAACCTGTTGCAT (site TGTGAGTCTAA)”, 0.107.

As for “TGTGAGTCTTGGGTTCTAACCTGTTGCAT (site TGTGAGTCTAC)”, the “recombinant barcode read abundance (log10)” value is 0.856.
